Measured values reported in patent US11331291B2, “Method of and improved composition for treating triterpene-responsive conditions, diseases or disorders” (PHOENIX BIOTECHNOLOGY, INC., priority 2017, dated 2022).
Like-named read-outs stand apart in the source and are kept apart here.

Key:
[1] = test system: primary corticalstriatal neuronal co-cultures containing glia; type: cell-based
Description: FIGS. 6A, 6B, 7A, 7B, 8A, and 8B depict the results of comparative cellular toxicities of the triterpenes to primary corticalstriatal neuronal co-cultures containing glia evaluated according to the example below: ursolic acid (FIGS. 6A, 6B), betulinic acid (FIGS. 7A, 7B) and oleanolic acid (FIGS. 8A, 8B). For FIGS. 6A, 7A and 8A, propidium iodide was added for one hour then the numbers of PI-positive cells were scored under automated high-content analysis on the Cellomics ArrayScan VTI. For FIGS. 6B, 7B and 8B, MTS substrate was added for two hours then co-culture wells were measured for absorbance at 450 nm using a multi-well plate reader.
We determined whether the reduced neuroprotective activity of Compositions I and II might be due to cellular toxicity of one or more of the individual triterpenes. We conducted a direct study of the cellular toxicities of oleanolic acid (OA), ursolic acid (UA), and betulinic acid (BA) using two independent measures of cell death: propidium iodide (PI) staining for nuclear breakdown and the MTS assay for cell metabolic activity. […] The MTS assay is a well-based assay in which cleavage of a tetrazolium reporter by mitochondrial enzymes produces colorimetric readout and reports relative numbers of healthy cells.

[2] = test system: ARE target genes (Srx, Hmox1); assay: ARE gene expression qPCR in rat primary corticostriatal co-cultures; type: cell-based
Description: FIG. 3 (prior art: Van Kanegan: vide supra) depicts the results of ARE gene expression assays for Fraction 0-4 and the individual triterpenes oleanolic acid, ursolic acid, betulinic acid and uvaol (also referred to as uvalol). “X” symbols denote concentrations of compounds which induced toxicity and for which recovery of residual mRNA was insufficient to support qPCR analysis. Rat primary corticostriatal co-cultures were treated for 6 h with Fraction 0-4 (in μg/ml) or oleanolic acid, ursolic acid, betulinic acid, or uvaol (all in μM) at the concentrations indicated, then harvested and processed for qPCR analysis of the ARE target genes shown. Quantitative RNA values were normalized to the GAPDH reference control and fold-expression changes are expressed relative to the DMSO-carrier only condition (“--”) set to a value of 1. Dark bars denote statistically significant differences with respect to the DMSO-carrier only control by a Student's t-test at p<0.05.
FIG. 4 depicts the results of expression assays for Fraction 0-4 and the individual triterpenes ursolic acid and betulinic acid at more closely-spaced concentration ranges. Rat primary corticostriatal co-cultures were treated for 6 h with Fraction 0-4 (in μg/ml) or ursolic acid and betulinic acid (in μM) at the concentrations indicated, then harvested and processed for qPCR analysis of the ARE target genes shown. Quantitative RNA values were normalized to the GAPDH reference control and fold-expression changes are expressed relative to the DMSO-carrier only condition (“--”) set to a value of 1. Dark blue bars denote statistically significant differences with respect to the DMSO-carrier only control by a Student's t-test at p<0.05.
FIGS. 10A and 10B depict the results of comparative Srx (FIG. 10A) and Hmox1 (FIG. 10B) expression assays for PBI-05204, PBI-04711 (also referred to as Fxn 0-4), oleanolic acid (O), ursolic acid (U), betulinic acid (B) and combinations of the triterpenes present at the specified molar ratios. Quantitative RNA values were normalized to the GAPDH reference control and fold-expression changes are shown relative to the DMSO-carrier only condition set to a value of 1. Dark blue bars denote statistically significant differences with respect to the DMSO-carrier only control by a Student's t-test at p<0.05. Striped, red bars denote conditions which induced excessive levels of ARE gene expression, namely, by more than 10-fold.
For qPCR quantification of ARE target gene expression levels, cortical and striatal neurons were plated onto 96-well plates containing mature glial cultures and cultured for 96 h. Composition was added to cultures at the indicated concentrations for 6 h. At the end of the treatment period, cells were lysed and total RNA was isolated using Absolutely RNA mini-prep kits (Agilent Technologies/Stratagene). cDNA was generated using oligo dT primers and Superscript II reverse transcriptase (Invitrogen). Resulting cDNA was used for quantitative PCR of gene transcripts using SYBR Green Real-Time PCR Master Mix (Life Technologies) and the following mouse primers, for: Gcic (forward-5′ […]-3′ (SEQ ID NO. 1) and reverse-5′-[…]-3′) (SEQ ID NO. 2), Ngo1 (forward-5′-GCCCGCATGCAGATCCT-3′ (SEQ ID NO. 3) and reverse 5′-[…]3′) (SEQ ID NO. 4), Srx (forward-5′-[…]-3′ (SEQ ID NO. 5) and reverse-5′-[…]-3′) (SEQ ID NO. 6), and Hmox1 (forward-5′-[…]-3′ (SEQ ID NO. 7) and reverse-5′-[…]-3′) (SEQ ID NO. 8) (Integrated DNA Technologies). […]

[3] = test system: cortical pyramidal neurons; conditions: prior art FIG. 5; equimolar basis; cited from earlier work
[4] = test system: ARE target genes (Srx, Hmox1); conditions: 6 h; prior art FIG. 3; compared among UA, BA, OA; cited from earlier work

Row | Compound | concentration leading to 50% loss of metabolic activity [1] [µM] | cellular toxicity ([2]; even at low concentration) | ARE gene expression induction ([2]; single agent, any concentration tested, FIGS. 10A, 10B) | neuroprotective activity of individual triterpenes in OGD assay [3] | inducing ARE gene expression as single agent [4] | cellular toxicity [2] | upregulation of Srx and Hmox1 ([2]; 6 h, closely-spaced concentrations, FIG. 4) | ARE gene expression induction (Srxn1) ([2]; single agent at 9 μM, relative to DMSO) [fold]
1 | C=C(C)[C@@H]1CC[C@]2(C(=O)O)CC[C@]3(C)[C@H](CC[C@@H]4[C@@]5(C)CC[C@H](O)C(C)(C)[C@@H]5CC[C@]43C)[C@@H]12 [BA, betulinic acid] | 5 to 15 | caused cellular toxicity | – | – | – | – | – | –
2 | CC1(C)CC[C@]2(C(=O)O)CC[C@]3(C)C(=CC[C@@H]4[C@@]5(C)CC[C@H](O)C(C)(C)[C@@H]5CC[C@]43C)[C@@H]2C1 [OA, oleanolic acid] | – | – | not able to induce appreciable ARE gene expression | higher activity than UA | relatively inactive | – | – | –
3 | C[C@H]1[C@H](C)CC[C@]2(C(=O)O)CC[C@]3(C)C(=CC[C@@H]4[C@@]5(C)CC[C@H](O)C(C)(C)[C@@H]5CC[C@]43C)[C@H]12 [UA, ursolic acid] | 5 to 15 | – | – | variable activity | considerably more potent | caused cellular toxicity | clear upregulation | > 10
